Data as given in PMC9389804 (Journal of Hematology & Oncology, 2022).
Several values for one entry are separate records, joined by “and”; a condition that tells them apart may be missing. Identical values can stand only once.

Experiment: safety assessments (adverse events, NCI CTCAE)
Details: for Treatment-related cardiovascular events: G 3/4
[1] = AE resulting in dose interruption, Total n=165
[2] = AE resulting in dose reduction, Accelerated phase n=38
[3] = AE resulting in dose reduction, Chronic phase n=127
[4] = AE resulting in dose reduction, Total n=165
[5] = AE resulting in treatment discontinuation, Accelerated phase n=38
[6] = AE resulting in treatment discontinuation, Chronic phase n=127
[7] = AE resulting in treatment discontinuation, Total n=165
[8] = CVE possibly related to olverembatinib, all 165 patients
[9] = CVEs possibly related to olverembatinib

Experimental: Adverse events were assessed continuously and graded according to NCI CTCAE v5.0.18. Complete blood count with differential, serum chemistries, and physical examinations were performed before the study; weekly during Cycles 1 and 2; on alternate weeks in Cycles 3 and 4; and monthly thereafter.

Cc1ccc(C(=O)Nc2ccc(CN3CCN(C)CC3)c(C(F)(F)F)c2)cc1C#Cc1cnc2[nH]ncc2c1 [olverembatinib]
1 (2.6) n (%): Anemia [2] | Arthralgia [2] | Atrial fibrillation [2] | Hyperbilirubinaemia [2] | Hyperglycaemia [2] | Hypokalemia [2] | Neutropenia [2] | Seronegative arthritis [2] | Nonhaematologic [5] | Pericardial effusion [5]
26 (15.8) n (%): Thrombocytopenia [4]
2 (1.6) n (%): Anemia [3] | Increased creatine phosphokinase [3] | Neutropenia [3] | Retinal-vein occlusion [3]
58 (45.7%) n (%) and 58 (45.7) n (%): Adverse events resulting in dose interruption (Chronic phase n=127)
1 (0.8) n (%): Acute coronary syndrome [3] | Arteriosclerosis coronary artery [3] | Asthenia [3] | Cerebral infarction [3] | Chest discomfort [3] | Dyspnea [3] | Electrocardiogram QT prolonged [3] | Glaucoma [3] | Hyperbilirubinaemia [3] | Hyperglycaemia [3] | Hypertriglyceridaemia [3] | Proteinuria [3] | Subileus [3] | Acute myocardial infarction [6] | Breast cancer [6] | Febrile neutropenia [6] | Lacunar infarction [6] | Proteinuria [6] | Retinal-vein occlusion [6]
14 (36.8%) n (%) and 14 (36.8) n (%): Adverse events resulting in dose reduction (Accelerated phase n=38)
9 (7.1) n (%): Adverse events resulting in treatment discontinuation (Chronic phase n=127)
10 (26.3) n (%): Hematologic adverse events [2]
2 (5.3) n (%): Leukopenia [2]
6 (3.6) n (%): Nonhaematologic [7] | Thrombocytopenia [7]
3 (1.8) n (%): Pyrexia [1] | Anemia [4] | Neutropenia [4]
4 (10.5) n (%): Adverse events resulting in treatment discontinuation (Accelerated phase n=38) | Treatment-related cardiovascular events (Accelerated phase n=38)
48 (29.1) n (%): Nonhematologic [1]
36 (28.3%) n (%) and 36 (28.3) n (%): Adverse events resulting in dose reduction (Chronic phase n=127)
1.8%: Retinal-vein occlusion [8]
16 (12.6) n (%): Nonhaematologic [3]
3 (2.4) n (%): Thrombocytopenia [6]
< 1%: angina pectoris, arrhythmia, atrial tachycardia, cardiomegaly, cerebral ischemia, and/or cerebral infarction [8]
5 (13.2) n (%): Nonhaematologic [2]
19 (11.5) n (%): Treatment-related cardiovascular events (Total n=165)
8.5%: Pericardial effusion [8]
0 n (%): Acute coronary syndrome [2] | Arteriosclerosis coronary artery [2] | Asthenia [2] | Cerebral infarction [2] | Chest discomfort [2] | Dyspnea [2] | Electrocardiogram QT prolonged [2] | Glaucoma [2] | Hypertriglyceridaemia [2] | Increased creatine phosphokinase [2] | Proteinuria [2] | Retinal-vein occlusion [2] | Subileus [2] | Arthralgia [3] | Atrial fibrillation [3] | Hypokalemia [3] | Leukopenia [3] | Seronegative arthritis [3] | Acute myocardial infarction [5] | Breast cancer [5] | Febrile neutropenia [5] | Lacunar infarction [5] | Proteinuria [5] | Retinal-vein occlusion [5] | Pericardial effusion [6]
1.2%: Palpitations [8]
21 (12.7) n (%): Nonhaematologic [4]
15 (11.8) n (%): Treatment-related cardiovascular events (Chronic phase n=127)
4 (3.1) n (%): Hematologic [6]
19 (15) n (%): Thrombocytopenia [3]
28 (73.7%) n (%) and 28 (73.7) n (%): Adverse events resulting in dose interruption (Accelerated phase n=38)
30 (18.2) n (%): Hematologic adverse events [4]
11 months: median time on treatment to cardiovascular events (CVEs) [9]
5 (3.0) n (%): Neutropenia [1]
20 (15.7) n (%): Hematologic adverse events [3]
59 (35.8) n (%): Thrombocytopenia [1]
5 (3.9) n (%): Nonhaematologic [6]
7 (18.4) n (%): Thrombocytopenia [2]
2 (1.2) n (%): Pneumonia [1] | Sinus tachycardia [1] | Upper-respiratory-tract infection [1] | Hyperbilirubinaemia [4] | Hyperglycaemia [4] | Increased creatine phosphokinase [4] | Leukopenia [4] | Retinal-vein occlusion [4]
7 (4.2) n (%): Hematologic [7]
11.5%: G3/4 cardiovascular events [9]
1 (0.6) n (%): Musculoskeletal pain [1] | Myocardial strain [1] | Pain [1] | Pain in extremity [1] | Pericardial effusion [1] | Peripheral swelling [1] | Proteinuria [1] | Pulmonary arterial hypertension [1] | Pulmonary tuberculosis [1] | Rash [1] | Refraction disorder [1] | Sinus bradycardia [1] | Skin mass [1] | Superior mesenteric artery syndrome [1] | Supraventricular extrasystoles [1] | Swelling [1] | Urinary sediment present [1] | Acute coronary syndrome [4] | Arteriosclerosis coronary artery [4] | Arthralgia [4] | Asthenia [4] | Atrial fibrillation [4] | Cerebral infarction [4] | Chest discomfort [4] | Dyspnea [4] | Electrocardiogram QT prolonged [4] | Glaucoma [4] | Hypertriglyceridaemia [4] | Hypokalemia [4] | Proteinuria [4] | Seronegative arthritis [4] | Subileus [4] | Acute myocardial infarction [7] | Breast cancer [7] | Febrile neutropenia [7] | Lacunar infarction [7] | Pericardial effusion [7] | Proteinuria [7] | Retinal-vein occlusion [7]
4.2%: Ventricular extrasystoles [8]
3 (7.9) n (%): Hematologic [5] | Thrombocytopenia [5]
3.0%: Atrial fibrillation [8] | Supraventricular extrasystoles [8]
